# Assay results as given in US9926304B2, “1-(arylmethyl)quinazoline-2,4(1H,3H)-diones as PARP inhibitors and the use thereof” (Impact Therapeutics, Inc., priority 2011, dated 2018).
# Like-named read-outs stand apart in the source and are kept apart here.
# What was measured:
# [1] = tested on: Human breast cancer cell line T47D; test: Cell based caspase-3 activity assay: potentiation of MMS induced apoptosis; conditions: T47D cells, 11.1 μg/ml MMS, 24 hours, intracellular caspase-3 activity, read-out: EC50 (nM), potentiation of the apoptosis inducing activity of MMS
# From the text: Determination of the synergistic potentiation effect of 1-(3-(4-(pyrimidin-2-yl)piperazine-1-carbonyl)benzyl)quinazoline-2,4(1H,3H)-dione and analogs on MMS induced apoptosis using a cell based caspase-3 activity assay
# Human breast cancer cell line T47D was used to determine the potentiation effect of PARP inhibitors on the apoptosis inducing activity of DNA damaging anticancer drugs such as MMS. Intracellular caspase-3 activity was used to measure cell apoptosis. The dose response effect of MMS to induce intracellular caspase activity was carefully titrated and the concentration that only induces a minimal level of caspase activity was used to test the potentiation effect of PARP inhibitors. Briefly, T47D cells were grown in DMEM/F12 cell culture medium (Hyclone) supplemented with 0.2 U/ml insulin (Genview) and 10% FBS (Hyclone). A day before experiment, 20000 of T47D cells were seeded to each well of a 96-well cell culture plate and maintained at 37° C. and 5% CO2 in a cell culture incubator overnight. On the day of experiment, cell culture medium was removed. One hundred and eighty μl of fresh medium containing 11.1 μg/ml MMS was added to each well and followed by 20 μl medium containing 10 folds of the concentrations of experimental drugs or reference compounds (ADZ2281 and ABT-888). The serial dilutions of the compounds to be tested and the reference compounds were made in a 1:3 and 1:10 fashion in DMSO. The 10-fold compound solutions were made by mixing 10 μl DMSO serial dilution solutions with 90 μl fresh growth medium. Twenty four hours later, the cells in the 96-well plates were centrifuged at 1000 g for 5 min and the supernatants were removed. Fifty μl lysis buffer (10 mM Tris, pH7.5, 0.1M NaCl, 1 mM EDTA, 0.01% Triton X-100) was added to each well and the plates were shaked horizontally for 30 min at 4° C. After centrifugation at 1000 g at 4° C. for 10 min, 20 μl of supernatant was transferred from each well to a corresponding well in a 384-well black plate. Twenty μl of buffer (20 mM PIPES, pH7.4, 4 mM EDTA and 0.2% CHAPS) containing 20 μM fluorescent caspase-3 substrate ((Ac-DEVD)2-R110, AnaSpec Cat #60304-5) was added to each well afterwards. The plates were shaked to uniformly mix the wells and incubated at 37° C. for 3 h. The fluorescence intensity was measured using the following wavelength: ex: 496 nm, em: 520 nm using a fluorescence plate reader (Varioskan Flash, Thermo Fisher Scientific). The caspase-3 activity induced by the compounds was expressed as a relative fluorescence unit (RFU). The obtained fluorescence readings were analyzed using a commercial graphic software (GraphPad Prism 5) and plotted against the Log value of the compound concentrations. The EC50 values were obtained by fitting the data points with the equation of Y (fluorescence reading)=minimal fluorescence reading+(maximal fluorescence reading−minimal fluorescence reading)/(1+10^(Log EC50−Log C)), where C is the concentration of the testing compound.
# The synergistic potentiation effect of compounds on MMS induced apoptosis in T47D cells is expressed as EC50 values and listed in Table 2.
# [2] = tested on: SW620 human colorectal cancer cells; test: MTT based cell viability assay: potentiation of the growth inhibiting activity of MMS
# [3] = read-out: IC50 (nM), potentiation of the growth inhibiting activity of MMS, SW620 cells, 1.7 μg/ml MMS, 5 days (120 hours), MTT
# [4] = Homo sapiens, SW-620, 120 h, read-out: IC50 (nM), potentiation of the growth inhibiting activity of MMS, SW620 cells, 1.7 μg/ml MMS, 5 days (120 hours), MTT
EC50 [1] [nM],"IC50 [2, 3] [nM]","EC50 ([1]; Homo sapiens, T47D, 24 h) [nM]","IC50 [2, 4] [nM]",Compound
2.3,2.1,–,–,"1-(3-(4-(Cyclopentylcarbonyl)piperazine-1-carbonyl)-4-fluorobenzyl)-6-fluoroquinazoline-2,4(1H,3H)-dione [Example 148]"
> 10000,> 10000,–,–,"1-(3-(4-Phenylpiperidine-1-carbonyl)benzyl)quinazoline-2,4(1H,3H)-dione [Example 18]"
–,–,450,5360,"O=C(c1cccc(Cn2c(=O)[nH]c(=O)c3ccccc32)c1)N1CCN(C2CCCCC2)CC1 [Example 5, 1-(3-(4-Cyclohexylpiperazine-1-carbonyl)benzyl)quinazoline-2,4(1H,3H)-dione]"
–,–,2660,5270,"CCN1CCN(C(=O)c2cccc(Cn3c(=O)[nH]c(=O)c4ccccc43)c2)CC1 [Example 7, 1-(3-(4-Ethylpiperazine-1-carbonyl)benzyl)quinazoline-2,4(1H,3H)-dione]"
–,–,6600,727,"O=C(c1cccc(Cn2c(=O)[nH]c(=O)c3ccccc32)c1)N1CCN(C(=O)C2CCOCC2)CC1 [Example 13, 1-(3-(4-(Tetrahydro-2H-pyran-4-carbonyl)piperazine-1-carbonyl)benzyl)quinazoline-2,4(1H,3H)-dione]"
–,–,9210,7260,"CCS(=O)(=O)N1CCN(C(=O)c2cccc(Cn3c(=O)[nH]c(=O)c4ccccc43)c2)CC1 [Example 16, 1-(3-(4-(Ethylsulfonyl)piperazine-1-carbonyl)benzyl)quinazoline-2,4(1H,3H)-dione]"
–,–,5800,> 10000,"COC(=O)c1cc(Cn2c(=O)[nH]c(=O)c3ccccc32)ccc1F [Example 21, 1-(4-Fluoro-3-methoxycarbonylbenzyl)quinazoline-2,4(1H,3H)-dione]"
–,–,> 10000,> 10000,"O=C(O)c1cc(Cn2c(=O)[nH]c(=O)c3ccccc32)ccc1F [Example 22, 1-(3-Carboxy-4-fluorobenzyl)quinazoline-2,4(1H,3H)-dione]"
–,–,5890,> 10000,"O=C(c1cccc(Cn2c(=O)[nH]c(=O)c3ccccc32)c1)N1CCC(N2CCCCC2)CC1 [Example 28, 1-(3-(4-(Piperidin-1-yl)piperidine-1-carbonyl)benzyl)quinazoline-2,4(1H,3H)-dione]"
–,–,104,294,"O=C(c1ccoc1)N1CCN(C(=O)c2cccc(Cn3c(=O)[nH]c(=O)c4ccccc43)c2)CC1 [Example 34, 1-(3-(4-(Furan-3-carbonyl)piperazine-1-carbonyl)benzyl)quinazoline-2,4(1H,3H)-dione]"

# Second part, the compound before the results:
Compound,EC50 [1] [nM],"IC50 [2, 3] [nM]","EC50 ([1]; Homo sapiens, T47D, 24 h) [nM]","IC50 [2, 4] [nM]"
"1-(3-(4-(Cyclopentylcarbonyl)piperazine-1-carbonyl)-6-fluorobenzyl)-6-fluoroquinazoline-2,4(1H,3H)-dione [Example 153]",2,9.2,–,–
"1-(3-(5-Bromopyrimidin-2-aminocarbamoyl)-4-fluorobenzyl)-5-fluoroquinazoline-2,4(1H,3H)-dione [Example 205]",> 10000,> 10000,–,–
"C[C@]1(c2nc3c(C(N)=O)cccc3[nH]2)CCCN1 [ABT-888, reference compound]",3490,2640,–,–
"COC(=O)c1cccc(Cn2c(=O)[nH]c(=O)c3ccccc32)c1 [Example 1, 1-(3-Methoxycarbonylbenzyl)quinazoline-2,4(1H,3H)-dione]",–,–,> 10000,> 10000
"O=C(O)c1cccc(Cn2c(=O)[nH]c(=O)c3ccccc32)c1 [Example 2, 1-(3-Carboxybenzyl)quinazoline-2,4(1H,3H)-dione]",–,–,> 10000,> 10000
"O=C(c1cccc(Cn2c(=O)[nH]c(=O)c3ccccc32)c1)N1CCN(c2ccc3nncn3n2)CC1 [Example 6, 1-(3-(4-([1,2,4]Triazolo[4,3-b]pyridazin-6-yl)piperazine-1-carbonyl)benzyl)quinazoline-2,4(1H,3H)-dione]",–,–,2520,7030
"O=C(c1ccc(F)cc1)N1CCN(C(=O)c2cccc(Cn3c(=O)[nH]c(=O)c4ccccc43)c2)CC1 [Example 9, 1-(3-(4-(4-Fluorobenzoyl)piperazine-1-carbonyl)benzyl)quinazoline-2,4(1H,3H)-dione]",–,–,426,500
"O=C(c1ccc(Cl)cc1)N1CCN(C(=O)c2cccc(Cn3c(=O)[nH]c(=O)c4ccccc43)c2)CC1 [Example 10, 1-(3-(4-(4-Chlorobenzoyl)piperazine-1-carbonyl)benzyl)quinazoline-2,4(1H,3H)-dione]",–,–,400,439
"COc1ccc(C(=O)N2CCN(C(=O)c3cccc(Cn4c(=O)[nH]c(=O)c5ccccc54)c3)CC2)cc1 [Example 12, 1-(3-(4-(4-Methoxybenzoyl)piperazine-1-carbonyl)benzyl)quinazoline-2,4(1H,3H)-dione]",–,–,318,533
"CC(=O)N1CCN(C(=O)c2cccc(Cn3c(=O)[nH]c(=O)c4ccccc43)c2)CC1 [Example 17, 1-(3-(4-Acetylpiperazine-1-carbonyl)benzyl)quinazoline-2,4(1H,3H)-dione]",–,–,5020,> 10000
"O=C(c1cccc(Cn2c(=O)[nH]c(=O)c3ccccc32)c1)N1CCN(c2ccccc2)CC1 [Example 19, 1-(3-(4-Phenylpiperazine-1-carbonyl)benzyl)quinazoline-2,4(1H,3H)-dione]",–,–,> 10000,> 10000
"O=C(c1cccc(Cn2c(=O)[nH]c(=O)c3ccccc32)c1)N1CCN(c2ccncc2)CC1 [Example 29, 1-(3-(4-(Pyridin-4-yl)piperazine-1-carbonyl)benzyl)quinazoline-2,4(1H,3H)-dione]",–,–,> 10000,> 10000
"O=C(c1cccc(Cn2c(=O)[nH]c(=O)c3ccccc32)c1)N1CCC(c2noc3cc(F)ccc23)CC1 [Example 31, 1-(3-(4-(6-Fluorobenzo[d]isoxazol-3-yl)piperidine-1-carbonyl)benzyl)quinazoline-2,4(1H,3H)-dione]",–,–,112,2600
"O=C(c1cccc(Cn2c(=O)[nH]c(=O)c3ccccc32)c1)N1CCN(C(=O)c2cccs2)CC1 [Example 32, 1-(3-(4-(Thiophene-2-carbonyl)piperazine-1-carbonyl)benzyl)quinazoline-2,4(1H,3H)-dione]",–,–,96,106
"O=C(c1cccc(Cn2c(=O)[nH]c(=O)c3ccccc32)c1)N1CCN(C(=O)c2ccco2)CC1 [Example 33, 1-(3-(4-(Furan-2-carbonyl)piperazine-1-carbonyl)benzyl)quinazoline-2,4(1H,3H)-dione]",–,–,96,130
"O=C(c1ccsc1)N1CCN(C(=O)c2cccc(Cn3c(=O)[nH]c(=O)c4ccccc43)c2)CC1 [Example 35, 1-(3-(4-(Thiophene-3-carbonyl)piperazine-1-carbonyl)benzyl)quinazoline-2,4(1H,3H)-dione]",–,–,238,265
"O=C(c1cc(Cn2c(=O)[nH]c(=O)c3cc(Cl)ccc32)ccc1F)N1CCN(C(=O)C2CC2)CC1 [Example 122, 6-Chloro-1-(3-(4-(cyclopropylcarbonyl)piperazine-1-carbonyl)-4-fluorobenzyl)quinazoline-2,4(1H,3H)-dione]",–,–,8.4,–
"O=C(NC1CCCCC1)N1CCN(C(=O)c2cccc(Cn3c(=O)[nH]c(=O)c4ccccc43)c2)CC1 [Example 191, 1-(3-(4-(Cyclohexylcarbamoyl)piperazine-1-carbonyl)benzyl)quinazoline-2,4(1H,3H)-dione]",–,–,–,192
